System: microorganisms in the activated sludge
Assay: Colony formation on NUTRIENT BROTH agar plates inoculated with activated sludge cell dispersion
Assay type: cell-based
Conditions: 30° C.; for Growth of the microorganisms in the activated sludge (in words): 0.1 w/w % on plate
Protocol: Ten ml of activated sludge obtained from a food manufacturer's factory were filtered through gauze. The filtered activated sludge was stirred, subjected to ultra-sonics, added with a saline solution, and further stirred to allow cells to disperse well in the filtered activated sludge. The cell dispersion was diluted with a saline solution to 3×10^4 cells/ml as determined by staining with 6-carboxy-fluorescein diacetate (J. Porter et al. J. Appl. Bacteriol., Vol. 79, 399-408 (1995)).
The medium used was NUTRIENT BROTH (DIFICO), an 1:3 mixture of Bact Beef® and Bact Peptone®) added with 0.2% glucose and 2% agar. The medium was heat-sterilized and allowed to coagulate in plates. The plates were added with 0.1 w/w % of the compound shown in Table 3 and inoculated with 0.1 ml of the cell dispersion solution, and incubated at 30° C. After 2 or 10 days incubation, the number of colonies formed on the plates was counted.

[1] = 0.1 w/w % cyclodextrin compound on plate, 0.1 ml cell dispersion
[2] = 0.1 w/w % polysaccharide on plate

Molecule	Colony/plate formed after incubation of 2 days [1]	Colony/plate formed after incubation of 10 days [1]	Growth of the microorganisms in the activated sludge (in words)	Colony/plate formed after incubation of 2 days [2]	Colony/plate formed after incubation of 10 days [2]
OC[C@H]1O[C@@H]2O[C@H]3[C@H](O)[C@@H](O)[C@@H](O[C@H]4[C@H](O)[C@@H](O)[C@@H](O[C@H]5[C@H](O)[C@@H](O)[C@@H](O[C@H]6[C@H](O)[C@@H](O)[C@@H](O[C@H]7[C@H](O)[C@@H](O)[C@@H](O[C@H]8[C@H](O)[C@@H](O)[C@@H](O[C@H]1[C@H](O)[C@H]2O)O[C@@H]8CO)O[C@@H]7CO)O[C@@H]6CO)O[C@@H]5CO)O[C@@H]4CO)O[C@@H]3CO [β-Cyclodextrin]	105 Colony/plate	350 Colony/plate	–	–	–
COC[C@H]1O[C@@H]2O[C@H]3[C@H](OC)[C@@H](OC)[C@@H](O[C@H]4[C@H](OC)[C@@H](OC)[C@@H](O[C@H]5[C@H](OC)[C@@H](OC)[C@@H](O[C@H]6[C@H](OC)[C@@H](OC)[C@@H](O[C@H]7[C@H](OC)[C@@H](OC)[C@@H](O[C@H]8[C@H](OC)[C@@H](OC)[C@@H](O[C@H]1[C@H](OC)[C@H]2OC)O[C@@H]8COC)O[C@@H]7COC)O[C@@H]6COC)O[C@@H]5COC)O[C@@H]4COC)O[C@@H]3COC [2,3,6-Tri-O-methyl-β-cyclodextrin]	220 Colony/plate	650 Colony/plate	promoted the growth	–	–
2-Hydroxypropyl-β-cyclodextrin	270 Colony/plate	710 Colony/plate	promoted the growth	–	–
Dextran	–	–	–	146 Colony/plate	350 Colony/plate
Glycogen	–	–	–	210 Colony/plate	830 Colony/plate
OC[C@H]1O[C@@H]2O[C@H]3[C@H](O)[C@@H](O)[C@@H](O[C@H]4[C@H](O)[C@@H](O)[C@@H](O[C@H]5[C@H](O)[C@@H](O)[C@@H](O[C@H]6[C@H](O)[C@@H](O)[C@@H](O[C@H]7[C@H](O)[C@@H](O)[C@@H](O[C@H]8[C@H](O)[C@@H](O)[C@@H](O[C@H]9[C@H](O)[C@@H](O)[C@@H](O[C@H]1[C@H](O)[C@H]2O)O[C@@H]9CO)O[C@@H]8CO)O[C@@H]7CO)O[C@@H]6CO)O[C@@H]5CO)O[C@@H]4CO)O[C@@H]3CO [γ-Cyclodextrin]	210 Colony/plate	640 Colony/plate	promoted the growth	–	–
Curdlan	–	–	–	220 Colony/plate	745 Colony/plate
COC[C@H]1O[C@@H]2O[C@H]3[C@H](O)[C@@H](OC)[C@@H](O[C@H]4[C@H](O)[C@@H](OC)[C@@H](O[C@H]5[C@H](O)[C@@H](OC)[C@@H](O[C@H]6[C@H](O)[C@@H](OC)[C@@H](O[C@H]7[C@H](O)[C@@H](OC)[C@@H](O[C@H]8[C@H](O)[C@@H](OC)[C@@H](O[C@H]1[C@H](O)[C@H]2OC)O[C@@H]8COC)O[C@@H]7COC)O[C@@H]6COC)O[C@@H]5COC)O[C@@H]4COC)O[C@@H]3COC [2,6-Di-O-methyl-β-cyclodextrin]	520 Colony/plate	1,060 Colony/plate	promoted the growth	–	–
Glucomannan	–	–	–	190 Colony/plate	650 Colony/plate
Pullulan	–	–	–	180 Colony/plate	600 Colony/plate
Cellulose	–	–	–	244 Colony/plate	685 Colony/plate
OC[C@H]1O[C@@H]2O[C@H]3[C@H](O)[C@@H](O)[C@@H](O[C@H]4[C@H](O)[C@@H](O)[C@@H](O[C@H]5[C@H](O)[C@@H](O)[C@@H](O[C@H]6[C@H](O)[C@@H](O)[C@@H](O[C@H]7[C@H](O)[C@@H](O)[C@@H](O[C@H]1[C@H](O)[C@H]2O)O[C@@H]7CO)O[C@@H]6CO)O[C@@H]5CO)O[C@@H]4CO)O[C@@H]3CO [α-Cyclodextrin]	120 Colony/plate	320 Colony/plate	–	–	–
